Here are results for one compound from paper PMC10945480 (Journal of Medicinal Chemistry, 2024).

For test [1], the system named is washed human platelets. The test can be described thus: U46619-induced platelet aggregation. As to conditions: Platelet; washed human platelets, U46619 (1 μM). Format: cell-based. The method in brief: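 Washed platelets from ACD-anticoagulated blood of healthy donors, stirred at 1200 rpm, 37 °C in a turbidimetric aggregometer. Aggregation triggered by U46619 or collagen, scored as maximal rise in light transmission.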

In test [2] the target is T1, ERp57 (PDIA3) (Homo sapiens, UniProt P30101).
T1 sequence (P30101 25-505): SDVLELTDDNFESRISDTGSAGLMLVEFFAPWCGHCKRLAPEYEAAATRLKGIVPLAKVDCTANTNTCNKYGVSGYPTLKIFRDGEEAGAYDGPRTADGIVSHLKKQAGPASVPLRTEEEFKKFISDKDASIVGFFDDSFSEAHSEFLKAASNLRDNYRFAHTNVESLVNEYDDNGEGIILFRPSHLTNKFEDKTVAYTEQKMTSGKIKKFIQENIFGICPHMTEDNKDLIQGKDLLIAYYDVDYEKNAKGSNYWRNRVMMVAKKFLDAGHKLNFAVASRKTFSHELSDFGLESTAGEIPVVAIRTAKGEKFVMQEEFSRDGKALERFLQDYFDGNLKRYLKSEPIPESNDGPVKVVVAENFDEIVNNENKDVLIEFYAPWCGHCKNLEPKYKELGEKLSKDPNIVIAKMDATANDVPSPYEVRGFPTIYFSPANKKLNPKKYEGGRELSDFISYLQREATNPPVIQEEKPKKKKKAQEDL
The test can be described thus: ERp57 reductase assay (Di-E-GSSG). Format: biochemical. The text has this: In addition to PDI, ERp57 (PDIA3) and ERp72 (PDIA4) are two other major members of the PDI family in both platelets and A549 cells.[62],[63]

In test [3] the test system is A549 cancer cells. The test can be described thus: Platelet-enhanced tumor cell proliferation. Particulars: A549 plus platelets, 48 h, 0.5 to 2 μM. Format: cell-based, human. On the procedure: In order to examine platelet-enhanced cancer cell growth, A549 cancer cells were coincubated with platelets for 48 h.
Figure 5 Inhibitory effects of JUG derivatives 18 and 22 on tumor cell-induced platelet secretion and platelet-enhanced tumor cell proliferation. (a) Washed human platelets were coincubated with A549 cancer cells under the same conditions as described in Figure 4. Secretion of PDGF and ATP were determined with the enzyme-linked immunosorbent assay (ELISA) and bioluminescent assay, respectively. (b) A549 cancer cells were coincubated with washed human platelets at 37 °C and 5% CO2 in a cell culture incubator for 48 h. After washing with PBS, the numbers of viable cancer cells were determined by trypan blue exclusion. Data are mean ± SEM of at least three independent experiments. In (a), *P < 0.05; **P < 0.01; ***P < 0.001 as compared with vehicle control (DMSO). In (b), *P < 0.05; **P < 0.01; ***P < 0.001 as compared with A549 cells plus platelets.
A549 cells (1 × 10^4 cells/well) were seeded in a 96-well plate and coincubated with wash human platelets (1 × 10^7 cells/well) containing with 0.375% plasma for 48 h at 37 °C and 5% CO2 in a cell culture incubator. After washing with phosphate buffered saline, the numbers of viable cancer cells were determined by trypan blue exclusion.

Test [4] concerns lung cancer A549. Kind of test: Cell viability, resazurin assay, A549. As to conditions: Homo sapiens, A549, 24 h, read-out: A549 IC50.
Experimental: (§1) Cells were maintained in a humidified incubator at 37 °C in 5% CO2, and cell viability was determined with the resazurin assay (Cayman Chemical, USA) after the incubation with compounds for indicated concentrations and times or DMSO as control.[72]
Test [5] deals with multiple myeloma RPMI8226. The test can be described thus: Cell viability, resazurin assay, RPMI8226. As to conditions: for IC50: Homo sapiens. (In general: Alamar Blue is a resazurin reagent that responds to reducing activity.)
Experimental: as §1
In test [6] the test system is human vascular endothelial EA.hy926 cells. The test can be described thus: Cell viability, resazurin assay, EA.hy926. Particulars: EA.hy 926, 24 h, read-out: EAhy926 IC50.
Experimental: as §1

Where two headings read alike, the source gives them in different places.

`CC(=O)OC1O[C@H](CSC2=CC(=O)c3cccc(O)c3C2=O)[C@@H](OC(C)=O)C(OC(C)=O)[C@H]1OC(C)=O` (stereo in doubt) [Compound 18, 2-(1,2,3,4-Tetra-O-acetyl-6-deoxy-6-thio-α-D-glucopyranose)-8-hydroxynaphthalene-1,4-dione]: the IC50 in test [1] came to 950 ± 100 nM; in test [2] (human recombinant, Di-E-GSSG) it was 6.98 ± 1.78 µM; in test [4], 36.8 ± 1.93 µM; in test [5] (RPMI-8226, 24 h, read-out: RPMI8226 IC50) it was 570 ± 10 nM; in test [5] (RPMI-8226, 72 h, read-out: RPMI8226 IC50, 72 h), 61 nM; in test [6], 7.27 ± 0.08 µM. For the same compound, the “concentrations inhibiting ERp57 and ERp72 relative to PDI” value in test [2] (ERp57 and ERp72 together, fold higher than required to inhibit PDI) is reported as 4 to 7 fold. The “platelet-enhanced cancer cell growth” value in test [3] is “blunted platelet-enhanced cancer cell growth”. Besides, the “S.I. (EAhy926/RPMI8226), selectivity index” value in test [5] (24 h IC50 ratio) was 12.8.

What is called IC50 is the midpoint of a concentration-inhibition curve.
